Test results taken from PubChem BioAssay (NCI).
Values joined by “and” are separate entries in the source; they are usually repeats but may differ in a detail not shown here. Equal entries are not always repeated.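 A five-concentration, 48-hour dose response in 96-well plates underlies each endpoint, interpolated linearly between surrounding concentrations. Abbreviation: GI50, concentration required for 50% inhibition of growth. TGI marks complete inhibition of growth.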

Legend:
Experiment in all cases: NCI anticancer screen, dose series, 48 h
[1] = system: A549 NSCLC
[2] = system: HOP-92 NSCLC
[3] = system: K-562 leukemia
[4] = system: MDA-MB-231 breast
[5] = system: MOLT-4 leukemia
[6] = system: NCI-H226 lung
[7] = system: OVCAR-8 ovarian
[8] = system: SF-295 CNS
[9] = system: SK-OV-3 ovarian
[10] = system: TK-10 renal

Compound	GI50 [1] [µM]	TGI [1]	GI50 [2] [µM]	TGI [2]	GI50 [3] [µM]	TGI [3]	GI50 [4]	TGI [4] [µM]	GI50 [5] [µM]	TGI [5]	GI50 [6]	TGI [6]	GI50 [7] [µM]	TGI [7]	GI50 [8] [µM]	TGI [8]	GI50 [9] [µM]	TGI [9]	GI50 [10]	TGI [10]
COc1ccc(NC(=O)Nc2n[nH]c3ccccc23)cc1	> 100	> 100 µM	> 100	> 100 µM	> 100	> 100 µM	> 100 µM	> 100	> 100	> 100 µM	> 100 µM	> 100 µM	> 100	> 100 µM	> 100	> 100 µM	> 100	> 100 µM	> 100 µM	> 100 µM
Cc1cc([C@@H](C)Nc2ccccc2C(=O)O)c2nc(N3CCOCC3)cc(=O)n2c1	> 10	> 10 µM	0.175	6.08 µM	> 10	> 10 µM	> 10 µM	> 10	5.42	> 10 µM	> 10 µM	> 10 µM	> 10	> 10 µM	1.85	> 10 µM	1.08	> 10 µM	> 10 µM	> 10 µM
COc1cc(/C=C\[N+](=O)[O-])ccc1O	3.34	12.7 µM	1.26	3.73 µM	3.17	10.8 µM	2.6 µM	8.94	2.76	7.23 µM	4.34 µM	16.6 µM	3.21	12.1 µM	17.2	31.5 µM	12.7	25.9 µM	1.72 µM	3.41 µM
O=C(Nc1cccc(-n2ccc3c(NC(=O)c4ccccc4)nccc32)c1)c1cccc(C(F)(F)F)c1	0.043	2.61 µM	0.281	8.07 µM	0.0391	> 38.2 µM	0.0533 µM	1.29	0.168	> 100 µM	0.153 µM	> 68.6 µM	0.036	2.43 µM	0.0278	0.468 µM	0.0331	15.1 µM	0.103 µM	19.4 µM
CCc1c2c(nc3cc4c(cc13)OCO4)-c1cc3c(c(=O)n1C2)COC(=O)[C@]3(O)CC		2.08 µM	0.019	> 100 µM		> 100 µM	0.0726 µM and 0.167 µM	> 100	< 0.001	0.0106 µM and 0.0339 µM	< 0.001 µM	0.227 µM			< 0.001				0.294 µM and 1.91 µM	
CC1(C)N=C(N)N=C(N)N1c1ccc(CCCCc2ccc(S(=O)(=O)F)cc2)cc1	0.623	> 100 µM	4.48	27.8 µM	0.472	28.8 µM	3.53 µM	25	1.41	24.3 µM	1.99 µM	33.2 µM	1.47	28.6 µM	5.71	> 54.2 µM	15.5	> 85 µM	1.14 µM	17.6 µM
N#Cc1c(NC(=O)c2cccc(C(F)(F)F)c2)sc2c1CCC(=O)C2	1.88	6.03 µM	1.02	3.06 µM	0.217		1.39 µM	3.31	0.35	> 32.2 µM	1.55 µM	5.02 µM	1.15	6.97 µM	0.845	3.88 µM	2.3	6.19 µM	0.543 µM	2.34 µM
CCOc1ccc(S(=O)(=O)/N=C2\C=C(SCC(=O)O)C(=O)c3ccccc32)cc1	12.6	34.9 µM	2.61	5.21 µM	3.35	10.6 µM	2.84 µM	12.2	2.38	6.06 µM	21.7 µM	50.6 µM	2.82	10.3 µM	13	30.2 µM	15.2	29.7 µM	26.5 µM	56.9 µM
Cc1cc2nc3c4cc(Cl)ccc4n(CCN(C)C)c3nc2cc1C	1.51	4.17 µM	0.498	3.61 µM	1.36	4.03 µM	1.6 µM	4.81	0.586	3.44 µM	1.98 µM	4.24 µM	1.4	6.33 µM	1.91	3.79 µM	2.75	10.6 µM	2.51 µM	5.74 µM
C[C@@H]1CC[C@H]2C(COCC3=C(C(F)(F)F)O[C@@H]4O[C@@]5(C)CC[C@H]6[C@H](C)CC[C@@H]3[C@@]46OO5)=C(C(F)(F)F)O[C@@H]3O[C@@]4(C)CC[C@@H]1[C@]32OO4	0.0126	> 100 µM			< 0.01	> 100 µM	0.037 µM	> 100	< 0.0233	> 100 µM	0.047 µM	> 100 µM	< 0.0178	> 100 µM	0.1		> 100	> 100 µM	0.143 µM	> 100 µM
C=C1C(=O)O[C@H]2[C@H]1CC/C(CNC(=O)c1c[nH]c3ccc(F)cc13)=C\CC[C@@]1(C)O[C@@H]21	4.59	19.6 µM	1.54	4.17 µM	0.856	6.17 µM	1.46 µM	3.58	1.32	4.53 µM	13.9 µM	38.6 µM	2.61	10.3 µM	3.71	17 µM	10.8	22.7 µM		
COc1ccc(/C=C/C=C(/C#N)C(N)=S)cc1	33.1	> 100 µM			29.9	> 100 µM	26.9 µM	87.4			55.7 µM	> 100 µM	21.5	54.3 µM	31	> 100 µM	96.1	> 100 µM	37.6 µM	> 100 µM
O=c1cc(-c2cccc(F)c2)[nH]c2cc3c(cc12)OCO3	0.498	21.9 µM and 40.9 µM		5.23 µM	0.338	75 µM and > 16.4 µM		1.03	0.799	75 µM and > 16.8 µM	0.951 µM and 0.0963 µM	9.77 µM and 1.49 µM	0.286	5.02 µM and 1.55 µM	0.141		0.265	1.01 µM and 1.03 µM	4.71 µM	75 µM and 44 µM
CC(=O)OCC1OC(O[C@@H]2C[C@H]3C(C)(C)[C@H](OC(C)=O)CC[C@]3(C)[C@H]3CCC4=C([C@@H](C)C[C@@H](O)[C@H](O)C(C)(C)O)CC[C@@]4(C)[C@@]32C)C(O)C(O)C1O (some centres undefined)	19	33.3 µM	14.6	27.9 µM	12.7	32.5 µM	11.6 µM	23.8	13.3	35.3 µM	17.3 µM	32 µM	15.9	29.6 µM	17.5	31.6 µM	17.9	32.1 µM		
C#CCNC(=O)NC(CCCNC(=O)OCc1ccccc1)C(=O)OCc1ccccc1 (centres undefined)		> 100 µM		> 100 µM		> 100 µM				> 100 µM		> 100 µM		> 100 µM		> 100 µM		> 100 µM		> 100 µM
N#CC1(c2nc3ccccc3o2)C(=O)C(=O)N(C2C3CC4CC(C3)CC2C4)C(=O)C1=O (centres undefined)		> 100 µM		> 100 µM		> 100 µM				> 100 µM		> 100 µM		> 100 µM		> 100 µM		> 100 µM		> 100 µM
COc1ccc2cc1Oc1ccc(cc1)C[C@H]1c3cc(c(OC)cc3CCN1C)Oc1c(OC)c(OC)cc3c1[C@H](C2)N(C)CC3				11 µM and 26 µM and > 100 µM		11.1 µM and > 100 µM	2.19 µM						6.53	16.3 µM and 19.2 µM and > 100 µM	12.8	16.3 µM and 28.9 µM and > 100 µM	17.6	15.3 µM and 34 µM and > 100 µM	12.7 µM	15.6 µM and 25.2 µM and 53.5 µM
COC(=O)C(C#N)=C1c2ccccc2Oc2ccccc21		> 100 µM		87.6 µM		> 100 µM				> 100 µM		> 100 µM		> 100 µM		> 100 µM		> 100 µM		> 100 µM
COC1O[C@H]2CCN(C(=O)OCc3ccccc3)[C@H]2[C@H]1OCc1ccccc1 (some centres undefined)		> 100 µM		> 86 µM		> 100 µM				> 100 µM		> 100 µM		> 100 µM		> 100 µM		55.3 µM		> 100 µM
CC(=O)[CH-]C(=O)c1ccccc1.CC(=O)[CH-]C(=O)c1ccccc1.CCCCCCCCCCCCCCCCCC(=O)[O-].CCCCCCCCCCCCCCCCCC(=O)[O-].[Ti+4]	19	37.3 µM	17	33.9 µM	22.3	62.1 µM			21.7	62 µM	14.5 µM	34.3 µM	22.6	48.3 µM	19.5	34.3 µM	21.9	37.9 µM	34.8 µM	99.1 µM
O=C(C#Cc1c[nH]c(=O)[nH]c1=O)c1ccccc1Cl		> 100 µM		35.4 µM		> 100 µM				44.3 µM		75.7 µM		29.3 µM		> 100 µM		> 100 µM		36.1 µM
CSc1nc(SC)c2c(CN=[N+]=[N-])c(Br)n(Cc3ccccc3)c2n1		> 100 µM		83.8 µM				> 100		> 100 µM		> 100 µM		> 100 µM		> 100 µM		> 100 µM		> 100 µM
N#Cc1c(-c2cccs2)c2c(=S)[nH]c(=S)[nH]c2[nH]c1=S	28.9	> 100 µM	89.4	> 100 µM	27.1	> 100 µM	39 µM	> 100	14.3	42.7 µM	37.2 µM	> 100 µM			46.5	> 100 µM	46	> 100 µM	90.7 µM	> 100 µM
O=C(CCN1CCN(c2cnc3ccccc3n2)CC1)c1csc2ccccc12			18.9	49.1 µM	28.6	> 100 µM	26 µM	63	35.7	> 100 µM	35.7 µM	> 100 µM	> 100	> 100 µM	36.1	> 100 µM	> 100	> 100 µM	19.5 µM	42.6 µM
COc1ccc(-c2nn(-c3cccc(Cl)c3)cc2C2CC(c3ccccc3)=NN2C(C)=O)cc1 (centres undefined)	7.58	> 100 µM			> 100	> 100 µM	7.99 µM	> 100	> 100	> 100 µM	3.86 µM	30.9 µM	4.75	> 100 µM	5.96	40.6 µM	6.85	43.2 µM	5 µM	21.6 µM
O=C1NC(c2ccc(O)cc2)C2CCC1C2 (centres undefined)		> 100 µM		> 100 µM		> 100 µM				> 100 µM		> 100 µM		> 100 µM		> 100 µM		> 100 µM		> 100 µM
CCC(C)C1NC(=O)c2nc(oc2-c2ccccc2)-c2csc(n2)-c2csc(n2)-c2nc(oc2C)-c2coc(n2)CNC(=O)C(C(C)CC)NC1=O (centres undefined)			0.0198	0.134 µM			0.035 µM	0.135					0.0216	0.182 µM	0.0469	0.178 µM				
COc1ccc(-c2cc(-c3cc(Cl)ccc3Cl)nc3[nH]c(-c4cc(F)c(Cl)cc4Cl)cc(=O)c23)cc1	14.2	74.7 µM	35.3	> 100 µM	29.3	> 100 µM	20.7 µM	83.8	24.2	68.6 µM	20.5 µM	63.6 µM	17	51.3 µM	23.8	> 100 µM	84.6	> 100 µM		
